Patent US4885284A, “Dihydropyridine-5-phosphonic acid cyclic propylene ester” (Nissan Chemical Industries Ltd., priority 1986, dated 1989)
Structures can show the parent of a compound that is named as a salt.

Experiments:
[1] = tested on: male spontaneously hypertensive rat (SHR); assay: Antihypertensive effect (systolic blood pressure, tail cuff method, oral, SHR); format: in vivo; settings: systolic blood pressure at 2, 4, 6 and 8 hours
Protocol: After oral administration of the test compound dissolved in a H2 O-PEG 400 solvent mixture (H2 O:PEG 400 (w/w)=1:3) to the male spontaneously hypertensive rat (SHR), the systolic blood pressure was measured at 2, 4, 6 and 8 hours after the administration of the test compounds by a tail cuff method. Prior to the measurement, rats were warmed at 50° C. for five minutes. The effectively antihypertensive activities were observed also at 8 hours after the administraton of the test compounds. Test 2: Acute toxicity test

[2] = Acute toxicity test (oral LD50); settings: mouse, in vivo; oral (5% solution), male ddY mice, seven days, Litchfield-Wilcoxon
Protocol: ddY mice (.male., 4 weeks old) were divided into groups of five mice and the test compound dissolved in purified water was administered orally (5% solution) (p.o) to the male ddY mice.
After seven days, LD50 values were calculated from the dead […] recorded in the individual dosage groups by the method of Litchfield-Wilcoxon.

[3] = tested on: taenia caecum of guinea pig; assay: Calcium antagonistic effect (relaxation of CaCl2-induced contraction in K+-depolarized taenia caecum); format: cell-based; settings: Cavia porcellus; -log ID50 (M); 50% relaxation relative to maximum relaxation by 10^-4 M papaverine; 37° C, 10 mM CaCl2; read-out: pID50 (calcium antagonistic effect) (converted)
Protocol: 10 mm in situ length of taenia caecum of guinea pig was suspended at a tension of 1 g in a 20 ml organ bath filled with a physiological salt solution (NaCl: 135 mM, KCl: 5 mM etc.).
This solution was bubbled with a gas mixture of 95% O2 -5% CO2 and kept at 37° C. Then, the preparation was depolarized by a K^+ rich solution (NaCl: 40 mM, KCl: 100 mM). After 10-20 minutes equilibration period, 10 mM of CaCl2 was added to the bathing solution. The contraction was produced, and then the test compound applied cumulatively. The relaxation produced was expressed as percentage of the maximum relaxation produced by 10^-4 M papaverine, and the concentration of the compound producing 50% relaxation, i.e. ID50 (M), was calculated.

Compound	Antihypertensive effect, maximum decrease ([1]; dose 10 mg/kg) [%]	LD50 at 168 h [2] [mg/kg]	IC50 [3] [M]	Antihypertensive effect, maximum decrease ([1]; dose 15 mg/kg) [%]	Antihypertensive effect, maximum decrease ([1]; dose 20 mg/kg) [%]
CC1=C(C(=O)OCCN2CCN(C(c3ccccc3)c3ccccc3)CC2)C(c2cccc(Cl)c2Cl)C(P2(=O)OCC(C)(C)CO2)=C(C)N1 (centres unmarked) [Dihydrochloride of Example 2]	37	> 400	9.77e-08	–	–
CC1=C(C(=O)OCCCN2CCN(C(c3ccc(F)cc3)c3ccc(F)cc3)CC2)C(c2cccc(Cl)c2Cl)C(P2(=O)OCC(C)(C)CO2)=C(C)N1 (centres unmarked) [Dihydrochloride of Example 3]	–	> 400	1.74e-07	36	–
CC1=C(C(=O)OCCN(Cc2ccccc2)c2ccccc2)C(c2cccc([N+](=O)[O-])c2)C(P2(=O)OCC(C)(C)CO2)=C(C)N1 (centres unmarked) [Hydrochloride of Example 1]	–	> 600	6.76e-09	36	–
CC1=C(C(=O)OC(C)CN(Cc2ccccc2)c2ccccc2)C(c2cccc([N+](=O)[O-])c2)C(P2(=O)OC(C)(C)CC(C)(C)O2)=C(C)N1 (centres unmarked) [Hydrochloride of Example 4]	–	> 300	1.26e-07	–	38
CC1=C(C(=O)OCCN(Cc2ccccc2)c2ccccc2)C(c2cccc([N+](=O)[O-])c2)C(P2(=O)OC(C)(C)CC(C)(C)O2)=C(C)N1 (centres unmarked) [Hydrochloride of Example 5]	40	> 300	–	–	–
CC1=C(C(=O)OC(C)CN(Cc2ccccc2)c2ccccc2)C(c2cccc(Cl)c2Cl)C(P2(=O)O[C@H](C)C[C@@H](C)O2)=C(C)N1 (some centres unmarked) [Hydrochloride of Example 6]	28	> 300	1.05e-07	–	–
CC1=C(C(=O)OCCN(Cc2ccccc2)c2ccccc2)C(c2cccc([N+](=O)[O-])c2)C(P2(=O)O[C@H](C)C[C@@H](C)O2)=C(C)N1 (some centres unmarked) [Hydrochloride of Example 7]	–	> 600	6.76e-09	34	–
